Measured values taken from the NIST ThermoML archive (doi:10.1016/j.fluid.2015.03.003).
± gives the expanded uncertainty stated by the source.

Conditions: 298.15 K, 101.33 kPa, Liquid; for electrical conductivity: Alternating current cell with electrodes; for mass density: Pycnometric method; for viscosity: Vibrating wire viscometry

Compound | electrical conductivity | mass density | viscosity
CCCCn1cc[n+](CCCC)c1.[Br-] [1,3-dibutylimidazolium bromide] | 0.918 ± 0.006 S/m | 1200 ± 560 kg/m3 | 11.1 ± 1.8 mPa·s
CC(C)Cn1cc[n+](CC(C)C)c1.[Br-] [1,3-diisobutylimidazolium bromide] | 0.403 ± 0.006 S/m | 1250 ± 610 kg/m3 | 67.6 ± 13 mPa·s
CCCCn1cc[n+](C)c1.[Br-] [1-butyl-3-methylimidazolium bromide] | 0.08 ± 0.01 S/m | 1230 ± 330 kg/m3 | 363 ± 110 mPa·s
CC(C)Cn1cc[n+](C)c1.[Br-] [1-isobutyl-3-methylimidazolium bromide] | 0.2 ± 0.004 S/m | 1260 ± 340 kg/m3 | 134 ± 28 mPa·s
